The target of the test is T1, CCR1 (Homo sapiens, UniProt P32246).
T1 sequence (P32246 1-355): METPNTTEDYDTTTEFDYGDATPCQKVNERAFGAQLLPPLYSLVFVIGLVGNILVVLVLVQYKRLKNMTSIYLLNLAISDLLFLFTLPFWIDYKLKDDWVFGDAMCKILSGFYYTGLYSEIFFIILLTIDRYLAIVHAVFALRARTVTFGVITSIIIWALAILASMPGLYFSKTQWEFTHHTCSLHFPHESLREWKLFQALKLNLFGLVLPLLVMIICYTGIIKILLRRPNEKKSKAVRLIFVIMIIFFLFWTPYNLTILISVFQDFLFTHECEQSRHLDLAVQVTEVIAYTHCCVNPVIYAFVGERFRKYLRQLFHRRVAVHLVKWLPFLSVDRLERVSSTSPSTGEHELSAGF
As to the kind of experiment: Method B: calcium flux in CCR1 transfected cells (Calcium 4 dye, […] FDSS6000), block of the CCR1/MIP-1α interaction. The following applies: Method B: Calcium 4 dye, MIP-1alpha at EC80. The test is classed as cell-based. How it is done:
Compounds are assessed for the ability to block the interaction of CCR1 and MIP-1α in a functional cellular assay measuring calcium flux in CCR1 transfected cells.
Method B: Non-adherent cells purchased from Chemicon Corporation (HTS005C), stably expressing recombinant CCR1 and G-alpha-16 are grown in RPMI 1640 medium (Mediatech 10-080-CM) supplemented with 10% FBS, 0.4 mg/mL Geneticin and penicillin/streptomycin. On the day of the assay, the cells are loaded with Calcium 4 dye (Molecular Devices R7448) with Probenecid (Invitrogen P346400) at 8E5 cells/mL for 1 hour at room temperature. After 1 hour, they are seeded in a 384-well tissue culture-treated plate at a density of 20,000 cells/well. Appropriately diluted test compound is added to the well to achieve a top concentration of 3,000 nM (diluted 4-fold with 10 doses total). The final concentration of DMSO is 1%. The buffer is HBSS (Invitrogen 14025) with 20 mM HEPES at pH 7.4. The cells incubate 30 minutes at 37 C and then 30 minutes at room temperature. The plates are transferred to the […] FDSS6000 where MIP-1alpha in 1% BSA is added at the EC80 final concentration. All plates must be read within 4 hours of the start of dye-loading. Wells+/−MIP-1alpha containing diluted DMSO instead of compound serve as the controls. Data are analyzed using Activity Base software.
On the technique in general: Calcium flux is commonly read through the fluorescence of an indicator in the cells.

In general, IC50 refers to the concentration at which inhibition is half-maximal. Turning to `CC[C@H](NC(=O)c1cncc2c1cnn2-c1ccc(F)cc1)c1cc(N(C)C)nc(S(C)(=O)=O)c1` [1-(4-Fluorophenyl)-1H-pyrazolo[3,4-c]pyridine-4-carboxylic acid [(S)-1-(2-dimethylamino-6-methanesulfonyl-pyridin-4-yl)-propyl]-amide], the IC50 was 0.2 nM. As for `CCOC(=O)CS(=O)(=O)c1cc(CNC(=O)c2cncc3c2cnn3-c2ccc(F)cc2)ccn1` [[4-({[1-(4-Fluorophenyl)-1H-pyrazolo[3,4-c]pyridine-4-carbonyl]-amino}-methyl)-pyridine-2-sulfonyl]-acetic acid ethyl ester], the figure is 4 nM. Under `CCC(NC(=O)c1cncc2c1cnn2-c1ccc(F)cc1)c1nc(C(=O)NC)co1` (stereo not shown) [1-(4-Fluorophenyl)-1H-pyrazolo[3,4-c]pyridine-4-carboxylic acid [1-(4-methylcarbamoyl-oxazol-2-yl)-propyl]-amide] stands 16 nM; under `CC[C@H](NC(=O)c1cncc2c1cnn2-c1ccc(F)cc1)c1cncc(S(=O)(=O)CCC(=O)OC)c1` [3-[5-((S)-1-{[1-(4-Fluorophenyl)-1H-pyrazolo[3,4-c]pyridine-4-carbonyl]-amino}-propyl)-pyridine-3-sulfonyl]-propionic acid methyl ester], 6.3 nM; under `CC[C@H](NC(=O)c1cncc2c1cnn2-c1ccc(F)cc1)c1cccc(S(C)(=O)=O)c1` [1-(4-Fluorophenyl)-1H-pyrazolo[3,4-c]pyridine-4-carboxylic acid [(S)-1-(3-methanesulfonyl-phenyl)-propyl]-amide], 0.3 nM. Under `COc1cc([C@H](C)NC(=O)c2cncc3c2cnn3-c2ccc(F)cc2)cc(S(C)(=O)=O)n1` [1-(4-Fluorophenyl)-1H-pyrazolo[3,4-c]pyridine-4-carboxylic acid [(S)-1-(2-methanesulfonyl-6-methoxy-pyridin-4-yl)-ethyl]-amide] stands 0.4 nM; under `CCC(CC)(NC(=O)c1cncc2c1cnn2-c1ccc(F)cc1)c1ccnc(Br)c1` [1-(4-Fluorophenyl)-1H-pyrazolo[3,4-c]pyridine-4-carboxylic acid [1-(2-bromo-pyridin-4-yl)-1-ethyl-propyl]-amide], 29 nM.

For the molecule `CC[C@H](NC(=O)c1cncc2c1cnn2-c1ccc(F)cc1)c1ccc(S(C)(=O)=O)s1` [1-(4-Fluorophenyl)-1H-pyrazolo[3,4-c]pyridine-4-carboxylic acid [(S)-1-(5-methanesulfonyl-thiophen-2-yl)-propyl]-amide], the IC50 came to 0.2 nM. Under `CS(=O)(=O)c1nc(CNC(=O)c2cncc3c2cnn3-c2ccc(F)cc2)cs1` [1-(4-Fluorophenyl)-1H-pyrazolo[3,4-c]pyridine-4-carboxylic acid (2-methanesulfonyl-thiazol-4-ylmethyl)-amide] stands 29 nM; under `CC[C@@H](NC(=O)c1cncc2c1cnn2-c1ccc(F)cc1)c1ccc(OC)c(S(C)(=O)=O)c1` [1-(4-Fluorophenyl)-1H-pyrazolo[3,4-c]pyridine-4-carboxylic acid [(R)-1-(3-methanesulfonyl-4-methoxy-phenyl)-propyl]-amide], 0.2 nM; under `CCC(NC(=O)c1cncc2c1cnn2-c1ccc(F)cc1)c1nc(C(=O)OC)c(C)o1` (stereo not shown) [2-(1-{[1-(4-Fluorophenyl)-1H-pyrazolo[3,4-c]pyridine-4-carbonyl]-amino}-propyl)-5-methyl-oxazole-4-carboxylic acid methyl ester], 27 nM. As for `C=CC[C@H](NC(=O)c1cncc2c1cnn2-c1ccc(F)cc1)c1ccncc1` [1-(4-Fluorophenyl)-1H-pyrazolo[3,4-c]pyridine-4-carboxylic acid ((S)-1-pyridin-4-yl-but-3-enyl)-amide], the figure is 32 nM; as for `C[C@H](NC(=O)c1cncc2c1cnn2-c1ccc(F)cc1)c1ccnc(Br)c1` [1-(4-Fluorophenyl)-1H-pyrazolo[3,4-c]pyridine-4-carboxylic acid [(S)-1-(2-bromopyridin-4-yl)-ethyl]-amide], 0.4 nM; as for `CS(=O)(=O)c1ccc(CNC(=O)c2cncc3c2cnn3-c2ccc(F)cc2)s1` [1-(4-Fluorophenyl)-1H-pyrazolo[3,4-c]pyridine-4-carboxylic acid (5-methanesulfonyl-thiophen-2-ylmethyl)-amide], 5 nM. As for `CCC[C@@H](NC(=O)c1cncc2c1cnn2-c1ccc(F)cc1)c1ccc(OC)c(Br)c1` [1-(4-Fluorophenyl)-1H-pyrazolo[3,4-c]pyridine-4-carboxylic acid [(R)-1-(3-bromo-4-methoxy-phenyl)-butyl]-amide], the figure is 0.3 nM; as for `CC[C@H](NC(=O)c1cncc2c1cnn2-c1ccc(F)cc1)c1csc(S(C)(=O)=O)c1` [1-(4-Fluorophenyl)-1H-pyrazolo[3,4-c]pyridine-4-carboxylic acid [(S)-1-(5-methanesulfonyl-thiophen-3-yl)-propyl]-amide], 0.3 nM. As for `CC[C@H](NC(=O)c1cncc2c1cnn2-c1ccc(F)cc1)c1nc(Br)cs1` [1-(4-Fluorophenyl)-1H-pyrazolo[3,4-c]pyridine-4-carboxylic acid [(S)-1-(4-bromo-thiazol-2-yl)-propyl]-amide], the concentration for half-maximal inhibition (IC50) came out at 0.8 nM.

`CC[C@H](NC(=O)c1cncc2c1cnn2-c1ccc(F)cc1)c1cnc(S(C)(=O)=O)s1` [1-(4-Fluorophenyl)-1H-pyrazolo[3,4-c]pyridine-4-carboxylic acid [(S)-1-(2-methanesulfonyl-thiazol-5-yl)-propyl]-amide]: the 50% inhibitory concentration (IC50) was 0.6 nM.

As for `CC[C@H](NC(=O)c1cncc2c1cnn2-c1ccc(F)cc1)c1ccnc(C(N)=O)c1` [1-(4-Fluorophenyl)-1H-pyrazolo[3,4-c]pyridine-4-carboxylic acid [(S)-1-(2-carbamoyl-pyridin-4-yl)-propyl]-amide], the IC50 was found to be 1 nM. As for `CS(=O)(=O)c1cc([C@H](CO)NC(=O)c2cncc3c2cnn3-c2ccc(F)cc2)ccn1` [1-(4-Fluorophenyl)-1H-pyrazolo[3,4-c]pyridine-4-carboxylic acid [(R)-2-hydroxy-1-(2-methanesulfonyl-pyridin-4-yl)-ethyl]-amide], the figure is 6 nM; as for `CCC(CC)(NC(=O)c1cncc2c1cnn2-c1ccc(F)cc1)c1ccnc(S(C)(=O)=O)c1` [1-(4-Fluorophenyl)-1H-pyrazolo[3,4-c]pyridine-4-carboxylic acid [1-ethyl-1-(2-methanesulfonyl-pyridin-4-yl)-propyl]-amide], 16 nM. Under `CC[C@H](NC(=O)c1cncc2c1cnn2-c1ccc(F)cc1)c1ccnc(SC)c1` [1-(4-Fluorophenyl)-1H-pyrazolo[3,4-c]pyridine-4-carboxylic acid [(S)-1-(2-methylsulfanyl-pyridin-4-yl)-propyl]-amide] stands 0.2 nM; under `CCC(NC(=O)c1cncc2c1cnn2-c1ccc(F)cc1)C1CCN(C(N)=O)CC1` (stereo not shown) [1-(4-Fluorophenyl)-1H-pyrazolo[3,4-c]pyridine-4-carboxylic acid [1-(1-carbamoyl-piperidin-4-yl)-propyl]-amide], 16 nM; under `CC[C@H](NC(=O)c1cncc2c1cnn2-c1ccc(F)cc1)c1nc(C(N)=O)cs1` [1-(4-Fluorophenyl)-1H-pyrazolo[3,4-c]pyridine-4-carboxylic acid [(S)-1-(4-carbamoyl-thiazol-2-yl)-propyl]-amide], 8 nM.

`CS(=O)(=O)c1cc([C@H](CC2COC(=O)O2)NC(=O)c2cncc3c2cnn3-c2ccc(F)cc2)ccn1` (stereo partly drawn) [1-(4-Fluorophenyl)-1H-pyrazolo[3,4-c]pyridine-4-carboxylic acid [(S)-1-(2-methanesulfonyl-pyridin-4-yl)-2-(2-oxo-1,3-dioxolan-4-yl)-ethyl]-amide]: the IC50 is 6 nM. Consider `CC[C@H](NC(=O)c1cncc2c1cnn2-c1ccc(F)cc1)c1ccnc(N2CCN(C(C)=O)CC2)c1` [1-(4-Fluorophenyl)-1H-pyrazolo[3,4-c]pyridine-4-carboxylic acid {(S)-1-[2-(4-acetyl-piperazin-1-yl)-pyridin-4-yl]-propyl}-amide], for which the IC50 worked out at 5 nM. As for `CS(=O)(=O)c1csc(CNC(=O)c2cncc3c2cnn3-c2ccc(F)cc2)c1` [1-(4-Fluorophenyl)-1H-pyrazolo[3,4-c]pyridine-4-carboxylic acid (4-methanesulfonyl-thiophen-2-ylmethyl)-amide], the figure is 5 nM; as for `CC[C@H](NC(=O)c1cncc2c1cnn2-c1ccc(F)cc1)c1cc(NC)nc(S(C)(=O)=O)c1` [1-(4-Fluorophenyl)-1H-pyrazolo[3,4-c]pyridine-4-carboxylic acid [(S)-1-(2-methanesulfonyl-6-methylamino-pyridin-4-yl)-propyl]-amide], 0.3 nM.

Source of the values: patent US8063065B2, “Azaindazole compounds as CCR1 receptor antagonists” (Boehringer Ingelheim International GmbH, priority 2008, dated 2011).
